Experiments:
[1] = Chlorhexidine release from HEMA-UDMA resin discs, with or without ultrasound; format: physicochemical; settings: no ultrasound, within 65 hours
Experimental: HEMA-UDMA resin was prepared by mixing 64% urethane dimethacrylate (UDMA) (Esschem UK, Lot: 591-22) and 36% hydroxyethyl methacrylate (HEMA) (Aldrich, 128635, Lot: STBC7495V), 0.08% of N,N-dimethyl-P-toluidine (Acros Organics, Lot: A0207283001) and 0.05% dimethylamino ethyl methacrylate (Aldrich, 234907, Lot: BCBF8391V) were added. The mixture was then stirred for 15 min (800 rpm, VWR Stirrer, USA). Finally, camphorquinone (Aldrich, 12, 489-3, Lot: 2338141) was added at the proportion of 0.1%. The mixture was stirred for another 15 min (VWR Stirrer, USA), and then the viscous liquid resin was prepared. Freeze dried chlorhexidine chloride compounds produced in Example 2 (precipitated with 0.33 M CaCl2) were weighed and incorporated within the resin at a loading level of 5% by weight. To explore the effect of different morphology on the release kinetics, chlorhexidine compounds with spherical, needle and flake morphology (from Example 1, FIG. 1, panels (b) and (c)) were incorporated into the resin. Incorporation of the chlorhexidine compounds within the resin was carried out by rotating the mixture contained in a 1 ml tube for 15 s in a Rotomix (120V/60 Hz, 2850 rotations/min) (ESPE RotoMix, USA). Chlorhexidine diacetate was also incorporated in the prepared resin in the same way, with loading rates of 5%, 10% and 15% (weight %). The filled resin was then placed into a Teflon mould (10 mm in diameter ×2 mm thick) and cured through a Mylar film with a curing light (Bluedent LED pen, Bulgaria) (430-490 nm, 600 mW/sq·cm) for 30 s. Then the discs were next weighed on a microbalance (Salter Ander-180A weighing scale, UK), and chlorhexidine content in each disc was calculated.
For the release study, all sample resin discs (HEMA-UDMA) containing chlorhexidine chloride compounds or chlorhexidine diacetate powder prepared in Example 5 were kept in cuvettes containing 3 ml deionized water, and kept at room temperature. And at each time point, solutions were collected for UV absorption tests (Lambda 35, Perkin Elmer, USA) and replaced with fresh deionized water.
For the chlorhexidine chloride compound doped discs (Example 5) chlorhexidine content was fixed at 5%, and ultrasound was exerted. Four groups (five discs in each group) were repetitively treated with ultrasound for 0 s, 10 s, 20 s, 30 s, accordingly, by contacting the ultrasound probe (Piezon Master 400, Swiss, 60 Hz, 45VA) on the disc surface at time points of 1 h, 3 h, 5 h, 15 h, 25 h, 40 h, 65 h, 95 h, 140 h, 205 h. After that, no ultrasound was carried out for all the groups, but release was carried on until the 650 hour time point. The UDMA-HEMA discs containing needle and flake chlorhexidine compounds and chlorhexidine diacetate (FIG. 1, panels (b) and (c), and FIG. 3, panel (g)) were also tested (UV absorption tests) at the same time points (same sample numbers) but without ultrasound treatment. For the chlorhexidine diacetate powder doped discs chlorhexidine content of 5%, 10% and 15% were also analysed, and no ultrasound treatment was carried out.

[2] = Thermo-gravimetric analysis (TGA); format: physicochemical; settings: TGA at 10° C./min in nitrogen, 50-800° C.
Experimental: The chlorhexidine chloride spheres (0.33M CaCl2 group) were analysed by Thermo-gravimetric analysis (TGA Q50, USA). Chlorhexidine diacetate crystals and CaCl2 powder (Sigma-Aldrich, C8106, Lot: SLBF7416V) were tested as comparisons. TGA was carried out at 10° C./min in a nitrogen atmosphere, over a temperature range of 50-800° C. The chlorhexidine proportion was further confirmed by the TGA result. […] The decomposition temperature of the chlorhexidine chloride spheres (210° C.) was higher than the chlorhexidine diacetate crystals (120° C.).

[3] = system: L929 cells; settings: mouse
Experimental: 0.5% chlorhexidine spheres stock solution was used to prepare fresh successive dilutions in sterile deionised water to obtain the final concentrations ranging from 0.0005 to 0.25%. For controls (untreated cultures), sterile deionised water was used. 25 μl of each treatment were added into respective wells to achieve final concentrations ranging from 0.00005-0.025%.
L929 cells, a mouse fibroblast-like cell line (ECACC 85011425) were cultured in Dulbecco's Modified Eagle's Medium (DMEM; Lonza, UK) supplemented with 10% fetal bovine serum (FBS) with 100 IU/mL penicillin, 100 μg/mL streptomycin and 2 mmol/L glutamine (all from Invitrogen, UK) in an humidified incubator with 10% CO2 and 95% air at 37° C.
Cell metabolic activity was evaluated by measuring the mitochondrial activity using a method commonly known as a methyl-tetrazolium (MTT) assay. MTT assay was carried out according to the protocols outlined in ISO 1 0993-5:2009 (Biological evaluation of medical devices—Part 5: Tests for in vitro cytotoxicity).
Trypsinisation was performed by routine methods and cell suspension was counted using a haemocytometer and seeded in 96-well microtiter plates at a concentration of 10,000 cells per well. The cells were then left overnight in the incubator to adhere to the wells. Following overnight incubation, medium was removed and cells were washed twice with PBS. The cells were then treated with different concentrations of chlorhexidine spheres (0.00005-0.025%) for 24 and 48 hours. Following treatment, culture medium containing chlorhexidine spheres was removed and 50 μL of 5 mg/mL tetrazolium salt MTT (Sigma-Aldrich, Gillingham, UK) was added to each well and incubated in 37 C for 4 h. Formazan crystals generated by mitochondrial enzyme activity were dissolved by 100 μl of isopropanol and the intensity of purple coloured reaction product quantified by measuring the absorbance spectra at 570 nm. A cell viability level below 70% of control (no treatment) was regarded as the toxic concentration according to the ISO protocol.

Compound: CC(=O)O.CC(=O)O.NC(=N\CCCCCC/N=C(N)/N=C(\N)Nc1ccc(Cl)cc1)/N=C(\N)Nc1ccc(Cl)cc1 [chlorhexidine diacetate, Chlorhexidine diacetate, reference compound]
- chlorhexidine released by weight ([1]; 5% loading, deionized water, room temperature): 6.7%
- chlorhexidine released by weight ([1]; 10% loading): 11.0%
- chlorhexidine released by weight ([1]; 15% loading): 15.1%
- decomposition temperature [2]: 120 °C

Compound: [H]/N=C(\N/C(=N/[H])NCCCCCCNC(=N)NC(=N)Nc1ccc(Cl)cc1)Nc1ccc(Cl)cc1 [chlorhexidine, N,N″″1,6-Hexanediylbis[N′-(4-chlorophenyl)(imidodicarbonimidic diamide)]]
- cellular viability [3]: below 10%
